Laboratory results: patent US20190046507A1, “COMPOUNDS FOR THE TREATMENT OF MALARIA” (Merck Sharp & Dohme Corp., priority 2016, published 2019)

Test system: asexual P. falciparum 3D7 parasites
Experiment: P. falciparum 3D7 growth inhibition assay with LDH activity readout (Assay 1)
Type: cell-based
Conditions: Plasmodium falciparum; 3D7 strain, 72 h incubation, LDH activity read by absorbance at 650 nm
Experimental: A modified version of the assay described in Gamo, F. J., Sanz, L. M., Vidal, J., de Cozar, C., Alvarez, E., Lavandera, J. L., Vanderwall, D. E., Green, D. V., Kumar, V., Hasan, S., Brown, J. R., Peishoff, C. E., Cardon, L. R., Garcia-Bustos, J. F., Nature, 465 (2010) 305-310 (Gamo et al.) was used to assess the activity of compounds against asexual P. falciparum 3D7 parasites. Compounds were pre-dispensed in 384-well plates, RPMI/AlbuMAX growth media was added and P. falciparum inoculated. Plates were incubated for 72 h and then frozen at −80° C. overnight. LDH activity was quantified with the modified cofactor 3-acetylpyridine adenine dinucleotide (APAD) (Sigma Aldrich) by measuring absorbance of the tetrazolium indicator nitro blue tetrazolium (NBT) (Sigma Aldrich) at 650 nm.
An inoculum of synchronous P. falciparum (3D7 strain) parasitized red blood cells (PRBC) at 0.7% parasitaemia and 2% haematocrit in RPMI-1640, 5% AlbuMAX, 2% D-sucrose, 0.3% glutamine and 150 μM hypoxanthine was used for the assay.
Compound master plates (384-well) were prepared by a 10 pt serial dilution of compounds, from 1 mM to 50.8 nM, in columns 3-12 and 13-22. DMSO was dispensed into columns 1 and 23 of the compound master plate to be used as the positive growth control (100% viability). […] Intermediate compound dilution plates were prepared by dispensing 1 μl from each well of the compound master plate into 11.5 μl of RPMI/AlbuMAX growth media. Duplicate assay plates (384-well) were then prepared by dispensing 0.5 μL of compound from the intermediate dilution plates into 9.5 μl of RPMI/AlbuMAX growth media. The parasite inoculum (30 μL) was dispensed into the assay plates containing compounds using a Multidrop dispenser (Thermo Scientific) such that the final assay volume was 40 μL and final compound concentration was 1 μM-0.05 nM (the volume of compound addition can be adjusted to the preferred and agreed screening concentration). The final DMSO concentration was 0.1% (ideally 0.2% to limit toxicity to parasites), but this is dependent on volume of compound DMSO stock solution that can be supplied. Plates were incubated at 37° C. for 72 h in an atmosphere of 5% CO2, 5% O2, […].
After 72 h of incubation, plates were frozen at −80° C. overnight and then thawed at room temperature for at least 4 h. To evaluate LDH activity, 45 μL of freshly made reaction mix (174 mM sodium L-lactate (Sigma Aldrich), 214 μM 3-acetyl pyridine adenine dinucleotide (APAD) (Sigma Aldrich), 270 μM nitro blue tetrazolium chloride (NBT) (Sigma Aldrich), 4.35 U/mL diaphorase (from Clostridium kluyveri) (Sigma Aldrich), 0.7% Tween 20, 100 mM Tris-HCl pH 7.5) was dispensed using a Multidrop dispenser (Thermo Scientific). Plates were shaken to ensure mixing and absorbance at 650 nm was monitored using a Perkin Elmer Envision plate reader after 30 min of incubation at room temperature. Data were normalized to percent growth inhibition using positive and negative controls, and analysed using TIBCO Spotfire software. […]

Structure (SMILES)	IC50
CC(=O)N1CCN(C(=O)c2cc(F)cc(CN3C(=N)NC(c4ccccc4)(c4ccccc4)C3=O)c2)CC1 [Compound 1]	4.5 nM
N=C1NC(C[C@@H]2CCCO2)(c2ccccc2)C(=O)N1Cc1ccc(C(F)(F)F)c(C(=O)N2Cc3nccnc3C2)c1 (stereo partly shown) [Compound 2]	5.8 nM
CC(C)CC[C@]1(c2ccccc2)NC(=N)N(Cc2ccc(C(F)(F)F)c(C(=O)N3CC(O)C(F)C3)c2)C1=O (stereo partly shown) [Compound 3]	9.6 nM
N=C1NC(c2ccc(F)cc2)(C2CCCCC2)C(=O)N1Cc1ccc(C(F)(F)F)c(C(=O)N2Cc3nccnc3C2)c1 (stereo not shown) [Compound 4]	9.7 nM
CC(C)CC[C@]1(c2ccccc2)NC(=N)N(Cc2ccc(C(C)(C)C)c(C(=O)N3CCn4ccnc4C3)c2)C1=O [Compound 5]	21.2 nM
CC(C)CC[C@]1(c2ccccc2)NC(=N)N([C@@H]2CCc3ccc(C(=O)N4Cc5nccnc5C4)cc32)C1=O [Compound 6]	21.8 nM
CC(C)CC[C@]1(c2ccccc2)NC(=N)N(Cc2ccc(C(C)(C)C)c(C(=O)N(C)C(C)c3ccncc3)c2)C1=O (stereo partly shown) [Compound 7]	25.1 nM
CC(C)CC[C@]1(c2ccccc2)NC(=N)N(Cc2ccc(C(C)(C)C)c(C(=O)N3CCOC[C@@H]3C)c2)C1=O [Compound 8]	56.6 nM
Cc1ccc([C@@]2(CC3CC3)NC(=N)N(Cc3ccc(C(C)(C)C)c(C(=O)N4CCC(C)(C)C4)c3)C2=O)cc1 [Compound 9]	86.6 nM
CC(C)CC[C@]1(c2ccccc2)NC(=N)N(Cc2ccc(C(C)(C)C)c(C(=O)N(C)Cc3ccon3)c2)C1=O [Compound 10]	120 nM
CC(C)CC[C@]1(c2ccccc2)NC(=N)N(Cc2ccc(C(C)(C)C)c(C(=O)NCc3cccnc3)c2)C1=O [Compound 11]	172 nM
Cc1ccc(C2(C3CCCCC3)NC(=N)N(Cc3ccc(C(C)(C)C)c(C(=O)N4Cc5ccccc5C4)c3)C2=O)cc1 (stereo not shown) [Compound 12]	221 nM
Cc1ccc(C2(c3ccc(C)cc3)NC(=N)N(Cc3ccc(C(C)(C)C)c(C(=O)N4Cc5nccnc5C4)c3)C2=O)cc1 [Compound 13]	223 nM
Cc1ccc(C2(CCC(C)C)NC(=N)N(Cc3ccc(C(C)(C)C)c(C(=O)N4Cc5cncnc5C4)c3)C2=O)cc1 (stereo not shown) [Compound 14]	225 nM
CC(C)(C)c1ccc(CN2C(=N)NC(c3ccccc3)(c3ccccc3)C2=O)cc1C(=O)N1Cc2nccnc2C1 [Compound 15]	239 nM
Cc1ccc(CN2C(=N)NC(CC(C)C)(c3ccccc3)C2=O)cc1C(=O)NC1CC1 (stereo not shown) [Compound 16]	240 nM
CC(C)CC[C@]1(c2ccccc2)NC(=N)N(Cc2ccc(C(C)(C)C)c(C(=O)N(C)Cc3noc(C4CC4)n3)c2)C1=O [Compound 17]	310 nM
CCOC(=O)NC1CCN(C(=O)c2cc(C)cc(CN3C(=N)NC(c4ccccc4)(c4ccccc4)C3=O)c2)CC1 [Compound 18]	313 nM
Cc1cc(CN2C(=N)NC(c3ccccc3)(c3ccccc3)C2=O)cc(C(=O)N2CCNC(=O)C2)c1 [Compound 20]	356 nM
